Laboratory results reported in US11480877B2, “Resist composition, method for forming resist pattern, and polyphenol compound used therein” (Mitsubishi Gas Chemical Company, Inc., priority 2015, dated 2022).

Test: Safe solvent solubility test of compound
Format: physicochemical
Details: for Solubility in CHN (amount of dissolution) / Solubility in PGME (amount of dissolution) / Solubility in PGME A (amount of dissolution): 23° C., ultrasonic waves 30 minutes, visual observation; for Solubility in PGME A (amount of dissolution) / Solubility in safe solvents (in words): PGMEA; for Solubility in safe solvents (in words): safe solvents PGME; for Solubility in CHN (amount of dissolution) / Solubility in safe solvents (in words): CHN
Protocol: The solubilities of the compound in PGME, PGMEA, and CHN were evaluated according to the following criteria utilizing the amount of dissolution in each solvent. The amount of dissolution was measured at 23° C. by precisely weighing the compound into a test tube, adding a subject solvent so as to attain a predetermined concentration, applying ultrasonic waves for 30 minutes in an ultrasonic cleaner, and visually observing the subsequent state of the fluid.
A: 5.0% by mass≤Amount of dissolution
B: 2.0% by mass≤Amount of dissolution<5.0% by mass
C: Amount of dissolution<2.0% by mass • (2) Storage Stability and Thin Film Formability of Resist Composition

| Structure (SMILES) | Solubility in CHN (amount of dissolution) | Solubility in PGME (amount of dissolution) | Solubility in PGME A (amount of dissolution) | Solubility in safe solvents (in words) |
| --- | --- | --- | --- | --- |
| COc1cc(C2c3c(ccc4cc(O)ccc34)Oc3ccc4cc(O)ccc4c32)cc(I)c1O [Synthesis Example 3] | A (5.0% by mass ≤ Amount of dissolution) | A (5.0% by mass ≤ Amount of dissolution) | A (5.0% by mass ≤ Amount of dissolution) | high solubility |
| Oc1ccc2ccc3c(c2c1)C(c1cccc(I)c1)c1c(ccc2ccc(O)cc12)O3 [Synthesis Example 4] | B (2.0% by mass ≤ Amount of dissolution <5.0% by mass) | A (5.0% by mass ≤ Amount of dissolution) | A (5.0% by mass ≤ Amount of dissolution) | high solubility |
| Oc1ccc2ccc3c(c2c1)C(c1ccc(I)cc1)c1c(ccc2ccc(O)cc12)O3 [Synthesis Example 5] | A (5.0% by mass ≤ Amount of dissolution) | A (5.0% by mass ≤ Amount of dissolution) | C (Amount of dissolution <2.0% by mass) | high solubility |
| Oc1ccc2c3c(ccc2c1)Oc1ccc2cc(O)ccc2c1C3c1ccc(I)cc1 [Synthesis Example 2] | A (5.0% by mass ≤ Amount of dissolution) | A (5.0% by mass ≤ Amount of dissolution) | A (5.0% by mass ≤ Amount of dissolution) | high solubility |
| Oc1ccc2c3c(ccc2c1)Oc1ccc2cc(O)ccc2c1C3c1ccc(-c2ccccc2)cc1 [Production Example 1, reference compound] | A (5.0% by mass ≤ Amount of dissolution) | A (5.0% by mass ≤ Amount of dissolution) | A (5.0% by mass ≤ Amount of dissolution) |  |
| COc1cc(C2c3c(ccc4ccc(O)cc34)Oc3ccc4ccc(O)cc4c32)cc(I)c1O [Synthesis Example 6] | A (5.0% by mass ≤ Amount of dissolution) | A (5.0% by mass ≤ Amount of dissolution) | A (5.0% by mass ≤ Amount of dissolution) | high solubility |
| Oc1ccc2c3c(ccc2c1)Oc1ccc2cc(O)ccc2c1C3c1cccc(I)c1 [Synthesis Example 1] | A (5.0% by mass ≤ Amount of dissolution) | A (5.0% by mass ≤ Amount of dissolution) | A (5.0% by mass ≤ Amount of dissolution) | high solubility |
